Reference: US10925872B2, “Methods of treating cochlear synaptopathy” (PIPELINE THERAPEUTICS, INC., priority 2016, dated 2021)

Tests used:
DCC α-fragment [1] = assay: DCC α-fragment Western blot of cochlea after round window delivery in vivo; design: species or system CBA/J mice; conditions: 2% in vehicle, 2 μl bilaterally to the round window, one week later
Description: Compound I (2% in vehicle, 2 μl) or vehicle (2 μl) was delivered bilaterally to the round window of CBA/J mice. One week later, cochlea were collected and processed for Western blot. Both cochlea from two animals were used to generate each data point. Cochlea were homogenized in 50 μL radioimmunoprecipitation assay buffer then allowed to lyse further at 4° C. for 1 h. Bone was spun out and 4× sample loading buffer added. Samples were run on a 4-15% TGX gradient gel (BioRad, Hercules, Calif.) and transferred to a nitrocellulose membrane and blocked with Odyssey Blocking Buffer (LI-COR, NE). Blots were probed with mouse DCC (BD Biosciences, San Jose, Calif.) at 1:500, and rabbit actin (loading control) antibodies (Li-Cor, NE) in blocking buffer containing 0.1% Tween-20. Membranes were washed with PBS/0.1% Tween then incubated in secondary antibody (goat anti-mouse IRDye 680LT and goat anti-rabbit IRDye 800LT, both from LI-COR, NE) diluted 1:10,000 in blocking buffer containing 0.1% Tween-20 and 0.01% SDS. Membranes were washed in PBS then imaged on a LiCor Odyssey Classic scanner and the DCC α-fragment quantified using ImageJ.

[2] = tested on: Type I spiral ganglion neurons; assay: Type I spiral ganglion neuron neurite outgrowth with GSIs; assay type: cell-based, CD-1 mice; conditions: 24-48 h, 0.1% DMSO
Description: Mouse spiral ganglion neurons (SGN) were harvested from CD-1 mice (postnatal day 3 to 5), dissociated and cultured on collagen I in serum free media. Cells were treated for 24-48 h with test compound in 0.1% DMSO then immunostained with the neurite marker, Tuj1 and imaged. Neurite length was quantified using ImageJ software (developed by NIH and available publicly). Only Tuj1^+ cells with clear bipolar morphology characteristic of Type I SGNs were quantified. The test compounds were Compound I, Compound II, and RO4929097, as well as the Notch sparing GSI, BMS-708163; NT-3 was included as positive control. […] Moreover, BMS-708163, a Notch-sparing GSI, and Compound I, a Notch inhibiting GSI, both increased type I SGN neurite outgrowth (FIG. 6C).

DCC α-fragment [3] = assay: DCC α-fragment Western blot, mouse ex vivo cochlea (spiral ganglion); assay type: cell-based, CD-1 mice; conditions: postnatal day 21 cochlea, 1 μM, 24 h, normalized to actin
Description: Previous reports have shown that DCC (deleted in colorectal cancer) is a γ-secretase substrate. DCC is the receptor for the guidance molecule, netrin, and its activation results in neuronal axon outgrowth, axon turning and synapse formation. Embryonic spinal cords of presenilin knockout mice treated display persistent expression of the DCC α-fragment; these fragments can enhance netrin-DCC mediated events, including axon outgrowth in cultured motor neurons (Taniguchi et al., 2003, J. Biol. Chem., 278:30425-30428, and Bai et al., 2011, Cell, 144(1): 106-18). The following studies were performed using GSM, “RO”, as well as the GSI, Compound I. RO has the structure:
Cochleae were obtained from postnatal day 21 CD-1 mice. An opening was made in the bone at the cochlear apex to allow for fluid flow. Cochlea were incubated in serum-free growth media (DMEM-F12, N2 and B27 serum supplements, penicillin/streptomycin) with 1 μM RO or 1 μM Compound I. After 24 h, spiral ganglion were isolated and processed for Western blot. Membranes were probed with a DCC antibody recognizing the intracellular domain and bands were normalized to actin.

C[C@H](OC(=O)NCC(F)(F)C(F)(F)F)C(=O)N[C@@H]1C(=O)Nc2ccccc2-c2ccccc21 [Compound I, (2,2,3,3,3-pentafluoropropyl)-carbamic acid (S)-1-((S)-6-oxo-6,7-dihydro-5H-dibenzo[b,d]azepin-7-ylcarbamoyl) ethyl ester]
DCC α-fragment compared to vehicle alone (DCC α-fragment [1]): approximately two fold increase
lengths of Type I SGN neurites [2]: significant increase
DCC α-fragment level compared to the vehicle group (DCC α-fragment [3]): Increase in α-fragment
